The target of the assay is T1, ACC1 from rat liver (Rattus norvegicus, UniProt P11497).
T1 construct: The livers (for ACC1 preparation) or skeletal muscle tissue (for ACC2 preparation) are removed; from tissue; host or cells: liver of male CD rats (fasted, then fed a high sucrose diet)
As to the kind of experiment: Direct inhibition of ACC1 activity (14C-bicarbonate incorporation). In kind it is biochemical. The gist of the method:
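ACC1 partially purified from livers of fasted/sucrose-refed male rats by PEG and ammonium sulfate fractionation, then preincubated 30 min at 37°C with 10 mM citrate and 1.0 mM MgCl2. Reaction ran 7 min at 37°C, stopped with HCl; acid-stable radioactivity counted by scintillation; HCl-first tubes served as blanks.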

Broadly, the pIC50 is −log10 of the IC50, conventionally taken in molar units. Lower therefore signals a large IC50.

Each structure is given as a SMILES string. pIC50: −log10 of the molar value. Counter-ions that a name gives are not always drawn.

Turning to `O=C1CC2(CCN(C(=O)c3cccc(-c4cc[nH]n4)c3)CC2)Oc2ccc(C(=O)N3CCOCC3)cc21` [Ex. M32, 6-(morpholin-4-ylcarbonyl)-1′-[3-(1H-pyrazol-3-yl)benzoyl]spiro[chromene-2,4′-piperidin]-4(3H)-one], for the setting “Table of Examples M1-M36”, the negative logarithm of the IC50 (pIC50) was 6.13. As for `CCc1cc(C(=O)N2CCC3(CC2)CC(=O)c2cc(C(=O)OC)ccc2O3)cc2cn[nH]c12` [Ex. C5, methyl 1′-[(7-ethyl-1H-indazol-5-yl)carbonyl]-4-oxo-3,4-dihydrospiro[chromene-2,4′-piperidine]-6-carboxylate], under “ACC1 from rat liver”, the pIC50 was 7.31. Take `O=C1CC2(CCN(C(=O)c3cccc(-c4cc[nH]n4)c3)CC2)Oc2cc(Cl)c(Cl)cc21` [Ex. M8, 6,7-dichloro-1′-[3-(1H-pyrazol-3-yl)benzoyl]spiro[chromene-2,4′-piperidin]-4(3H)-one]: the negative-log IC50 (pIC50) (Table of Examples M1-M36) was 6.75. Under “ACC1 from rat liver”, `O=C1CC2(CCN(C(=O)c3cc(Cl)c4[nH]ncc4c3)CC2)Oc2cc(Cl)c(F)cc21` [Ex. B10, 7-chloro-1′-[(7-chloro-1H-indazol-5-yl)carbonyl]-6-fluorospiro[chromene-2,4′-piperidin]-4(3H)-one] showed a pIC50 of 6.68. For `CCc1cc(C(=O)N2CCC3(CC2)CC(=O)c2cc(C)c(C)cc2O3)cc2cn[nH]c12` [Ex. C1, 1′-[(7-ethyl-1H-indazol-5-yl)carbonyl]-6,7-dimethylspiro[chromene-2,4′-piperidin]-4(3H)-one], the pIC50 (ACC1 from rat liver) was 7.76.

The compound `O=C1CC2(CCN(C(=O)c3cccc4cn[nH]c34)CC2)Oc2ccccc21` showed a pIC50 (ACC1 from rat liver) below 5.52. On the same count and under the same terms, as for `Cc1cc2c(cc1C)C(=O)CC1(CCN(C(=O)c3ccc4c(c3)nc(N3CCCC3)n4C)CC1)O2` [Ex. L29, 6,7-dimethyl-1′-[(1-methyl-2-pyrrolidin-1-yl-1H-benzimidazol-5-yl)carbonyl]spiro[chromene-2,4′-piperidin]-4(3H)-one], the figure is 6.89.

Take `COc1cc(C)c2c(c1)OC1(CCN(C(=O)c3cccc(-c4ccn[nH]4)c3)CC1)CC2=O` [Ex. O4, 7-methoxy-5-methyl-1′-[3-(1H-pyrazol-5-yl)benzoyl]spiro[chromene-2,4′-piperidin]-4(3H)-one]: the negative logarithm of the IC50 (pIC50) (Table of Examples O1-O4) is 6.33. With `Cc1cc2c(cc1C)C(=O)CC1(CCN(C(=O)c3ccc4[nH]cc(Cl)c4c3)CC1)O2` [Ex. L9, 1′-[(3-chloro-1H-indol-5-yl)carbonyl]-6,7-dimethylspiro[chromene-2,4′-piperidin]-4(3H)-one], the pIC50 (ACC1 from rat liver) was 7.36. `COc1ccc2c(c1F)C(=O)CC1(CCN(C(=O)c3cccc4cn[nH]c34)CC1)O2` [Ex. H6, 5-fluoro-1′-(1H-indazol-7-ylcarbonyl)-6-methoxyspiro[chromene-2,4′-piperidin]-4(3H)-one]: for the setting “ACC1 from rat liver”, the negative-log IC50 (pIC50) was 6.42. Compared with the last compound, the pIC50 is 0.94 log units lower. For the compound `NC(=O)c1ccc2c(c1)C(=O)CC1(CCN(C(=O)c3cccc(-c4cc[nH]n4)c3)CC1)O2` [Ex. M5, 4-oxo-1′-[3-(1H-pyrazol-3-yl)benzoyl]-3,4-dihydrospiro[chromene-2,4′-piperidine]-6-carboxamide], the pIC50 (Table of Examples M1-M36) is 6.93. For the setting “ACC1 from rat liver”, `Cc1cc2c(cc1C)C(=O)CC1(CCN(C(=O)c3ccc4cnn(C)c4c3)CC1)O2` [Ex. G2, 6,7-dimethyl-1′-[(1-methyl-1H-indazol-6-yl)carbonyl]spiro[chromene-2,4′-piperidin]-4(3H)-one] showed a negative-log IC50 (pIC50) of 6.78. Compound `Cc1cc(C(=O)N2CCC3(CC2)CC(=O)c2ccc(-c4ccccc4)cc2O3)cc2cn[nH]c12` [Ex. A34, 1′-[(7-methyl-1H-indazol-5-yl)carbonyl]-7-phenylspiro[chromene-2,4′-piperidin]-4(3H)-one] gave a negative-log IC50 (pIC50) (ACC1 from rat liver) of 6.40. In the case of `COc1c(Cl)ccc2c1C(=O)CC1(CCN(C(=O)c3cccc4cn[nH]c34)CC1)O2` [Ex. H17, 6-chloro-1′-(1H-indazol-7-ylcarbonyl)-5-methoxyspiro[chromene-2,4′-piperidin]-4(3H)-one], for the setting “ACC1 from rat liver”, the pIC50 is 5.74. In the case of `O=C1CC2(CCN(C(=O)c3cccc(-c4ccn[nH]4)c3)CC2)Oc2ccccc21` [Ex. O1, 1′-[3-(1H-pyrazol-5-yl)benzoyl]spiro[chromene-2,4′-piperidin]-4(3H)-one], the pIC50 (Table of Examples O1-O4) is 6.04. Compound `Cc1cc(C(=O)N2CCC3(CC2)CC(=O)c2cc(Cl)c(Cl)cc2O3)cc2cn[nH]c12` [Ex. A14, 6,7-dichloro-1′-[(7-methyl-1H-indazol-5-yl)carbonyl]spiro[chromene-2,4′-piperidin]-4(3H)-one] had a pIC50 (ACC1 from rat liver) of 7.28.

In the case of `Cc1cc2c(cc1C)C(=O)CC1(CCN(C(=O)c3ccc4ccn(C)c4c3)CC1)O2` [Ex. L4, 6,7-dimethyl-1′-[(1-methyl-1H-indol-6-yl)carbonyl]spiro[chromene-2,4′-piperidin]-4(3H)-one], for the setting “ACC1 from rat liver”, the pIC50 is 7.08. Take `Cc1cc2c(cc1Br)C(=O)CC1(CCN(C(=O)c3cccc(-c4cc[nH]n4)c3)CC1)O2` [Ex. M10, 6-bromo-7-methyl-1′-[3-(1H-pyrazol-3-yl)benzoyl]spiro[chromene-2,4′-piperidin]-4(3H)-one]: the pIC50 (Table of Examples M1-M36) was 6.70. `COc1cc2c(c(OC)c1OC)C(=O)CC1(CCN(C(=O)c3cccc4cn[nH]c34)CC1)O2` [Ex. H11, 1′-(1H-indazol-7-ylcarbonyl)-5,6,7-trimethoxyspiro[chromene-2,4′-piperidin]-4(3H)-one] showed a pIC50 (ACC1 from rat liver) of 6.12. On the same count and under the same terms, the value for `Cc1cc(C(=O)N2CCC3(CC2)CC(=O)c2ccc(C#N)cc2O3)cc2cn[nH]c12` [Ex. A32, 1′-[(7-methyl-1H-indazol-5-yl)carbonyl]H-oxo-3,4-dihydrospiro[chromene-2,4′-piperidine]-7-carbonitrile] was 6.56.

Turning to `Cc1cc2c(cc1C)C(=O)CC1(CCN(C(=O)c3cc(-c4ccn(C)n4)ccc3Cl)CC1)O2` [Ex. P3, 1′-[2-chloro-5-(1-methyl-1H-pyrazol-3-yl)benzoyl]-6,7-dimethylspiro[chromene-2,4′-piperidin]-4(3H)-one], the negative-log IC50 (pIC50) (Table of Examples P1-P15) is above 5.52. The compound `COc1ccc2c(c1)C(=O)CC1(CCN(C(=O)c3ccc4c(C)n[nH]c4c3)CC1)O2` [Ex. F2, 6-methoxy-1′-[(3-methyl-1H-indazol-yl)carbonyl]spiro[chromene-2,4′-piperidin]-4(3H)-one] showed a negative logarithm of the IC50 (pIC50) (ACC1 from rat liver) of 7.31. As to `O=C1CC2(CCN(C(=O)c3cccc4cn[nH]c34)CC2)Oc2cc(-c3ccccc3)ccc21` [Ex. H18, 1′-(1H-indazol-7-ylcarbonyl)-7-phenylspiro[chromene-2,4′-piperidin]-4(3H)-one], the negative-log IC50 (pIC50) (ACC1 from rat liver) is 5.66. With `Cc1cc2c(cc1C)C(=O)CC1(CCN(C(=O)c3ccc4c(cnn4C)c3)CC1)O2` [Ex. D1, 6,7-dimethyl-1′-[(1-methyl-1H-indazol-5-yl)carbonyl]spiro[chromene-2,4′-piperidin]-4(3H)-one], where the note is “ACC1 from rat liver”, the negative logarithm of the IC50 (pIC50) was 7.24. Turning to `Cc1cc2c(cc1Br)C(=O)CC1(CCN(C(=O)c3cc(C)c4[nH]ncc4c3)CC1)O2` [Ex. A8, 6-bromo-7-methyl-1′-[(7-methyl-1H-indazol-5-yl)carbonyl]spiro[chromene-2,4′-piperidin]-4(3H)-one], for the setting “ACC1 from rat liver”, the negative logarithm of the IC50 (pIC50) is 7.49. In the case of `Cc1cc2c(cc1C)C(=O)CC1(CCN(C(=O)c3ccc4nc(-c5ccncc5)[nH]c4c3)CC1)O2` [Ex. L36, 6,7-dimethyl-1′-[(2-pyridin-4-yl-1H-benzimidazol-6-yl)carbonyl]spiro[chromene-2,4′-piperidin]-4(3H)-one trifluoroacetic acid salt], the pIC50 (ACC1 from rat liver) is 7.29.

`COc1ccc2c(c1)C(=O)CC1(CCN(C(=O)c3cccc4cn[nH]c34)CC1)O2` [Ex. H7] had a pIC50 (ACC1 from rat liver) of 6.25. As to `Cc1cc2c(cc1Cl)C(=O)CC1(CCN(C(=O)c3ccc4c(C)n[nH]c4c3)CC1)O2` [Ex. F3, 6-chloro-7-methyl-1′-[(3-methyl-1H-indazol-6-yl)carbonyl]spiro[chromene-2,4′-piperidin]-4(3H)-one], under “ACC1 from rat liver”, the negative logarithm of the IC50 (pIC50) was 6.97.

For `COc1cccc2c1C(=O)CC1(CCN(C(=O)c3ccc4c(Cl)c[nH]c4c3)CC1)O2` [Ex. L6, 1′-[(3-chloro-1H-indol-6-yl)carbonyl]-5-methoxyspiro[chromene-2,4′-piperidin]-4(3H)-one], the negative-log IC50 (pIC50) (ACC1 from rat liver) was 7.33. This pIC50 is 0.36 log units higher than that of the compound before. Under “Table of Examples P1-P15”, `Cc1cc2c(cc1C)C(=O)CC1(CCN(C(=O)c3cc(-c4cc[nH]n4)ccc3Cl)CC1)O2` [Ex. P5, 1′-[2-chloro-5-(1H-pyrazol-3-yl)benzoyl]-6,7-dimethylspiro[chromene-2,4′-piperidin]-4(3H)-one trifluoroacetic acid salt] gave a pIC50 above 5.52. Regarding `Cc1cc(C(=O)N2CCC3(CC2)CC(=O)c2cc(C(F)(F)F)ccc2O3)cc2cn[nH]c12` [Ex. A20, 1′-[(7-methyl-1H-indazol-5-yl)carbonyl]-6-(trifluoromethyl)spiro[chromene-2,4′-piperidin]-4(3H)-one], under “ACC1 from rat liver”, the pIC50 was 7.02. `COc1cccc2c1C(=O)CC1(CCN(C(=O)c3cccc(-c4cc[nH]n4)c3)CC1)O2` [Ex. M27, 5-methoxy-1′-[3-(1H-pyrazol-3-yl)benzoyl]spiro[chromene-2,4′-piperidin]-4(3H)-one]: the pIC50 (Table of Examples M1-M36) is 6.26. Regarding `Cc1cc2c(cc1C)C(=O)CC1(CCN(C(=O)c3cccc(-c4ncc[nH]4)c3)CC1)O2` [Ex. P12, 1′-[3-(1H-imidazol-2-yl)benzoyl]-6,7-dimethylspiro[chromene-2,4′-piperidin]-4(3H)-one trifluoroacetic acid salt], the pIC50 (Table of Examples P1-P15) is 7.13. On to `Cc1cc2c(cc1C)C(=O)CC1(CCN(C(=O)c3cc(C)c4[nH]nc(C)c4c3)CC1)O2` [Ex. E3, 1′-[(3,7-dimethyl-1H-indazol-5-yl)carbonyl]-6,7-dimethylspiro[chromene-2,4′-piperidin]-4(3H)-one], for which, where the note is “ACC1 from rat liver”, the negative logarithm of the IC50 (pIC50) was 8.01. For `COC(=O)c1ccc2c(c1)C(=O)CC1(CCN(C(=O)c3cc(C)c4[nH]nc(C)c4c3)CC1)O2` [Ex. E4, methyl 1′-[(3,7-dimethyl-1H-indazol-5-yl)carbonyl]-4-oxo-3,4-dihydrospiro[chromene-2,4′-piperidine]-6-carboxylate], the pIC50 (ACC1 from rat liver) was 7.27.

Source of the values: patent US20090270435A1 (priority 2006, published 2009).
